This passage reports IC50 results from ChEMBL document CHEMBL2203140, “Syntheses and structure-activity relationship studies of N-substituted-β-D-glucosaminides as selective cytotoxic agents” (Bioorg Med Chem Lett, 2012).

What all share (assay type): functional, cell-based
For one assay, the system named is MCF7. Description: Cytotoxicity against human MCF7 cells after 48 hrs by MTT assay. The following applies: MCF7, 48 h.
A further assay concerns HepG2. Briefly: Cytotoxicity against human HepG2 cells after 48 hrs by MTT assay. The note with it: HepG2, 48 h. (Tetrazolium assays rely on reduction of a dye to a coloured formazan, in cell work by metabolically active cells.)
A further assay concerns HCT-116. Description: Cytotoxicity against human HCT116 cells after 48 hrs by MTT assay. The following applies: HCT-116, 48 h.
The subject of a further assay is HeLa. Description: Cytotoxicity against human HeLa cells after 48 hrs by MTT assay.
A further assay has as its system HT-1080. Briefly: Cytotoxicity against human HT1080 cells after 48 hrs by MTT assay. The note with it: HT-1080, 48 h.
Another assay relates to A549. Description: Cytotoxicity against human A549 cells after 48 hrs by MTT assay. The following applies: A549, 48 h.

What is called IC50 is the concentration that gives 50% inhibition. A low value points to inhibition by little substance. Regarding `C[C@@H]1CC[C@@]2(OC1)O[C@H]1C[C@H]3[C@@H]4CC=C5C[C@@H](O[C@@H]6O[C@H](CO)[C@@H](O)[C@H](O)[C@H]6NC(=O)NC(C)(C)C)CC[C@]5(C)[C@H]4CC[C@]3(C)[C@H]1[C@@H]2C`, the IC50 with MCF7 is 26.8 µM; in the assay on HepG2, over 50 µM; in the assay with HCT-116 it was over 50 µM; in the assay with HeLa it was 27.6 µM; in the assay on HT-1080, 42.3 µM; in the assay on A549, over 50 µM.

Take `C[C@@H]1CC[C@@]2(OC1)O[C@H]1C[C@H]3[C@@H]4CC=C5C[C@@H](O[C@@H]6O[C@H](CO)[C@@H](O)[C@H](O)[C@H]6NC(=O)/C=C/c6cccc(Br)c6)CC[C@]5(C)[C@H]4CC[C@]3(C)[C@H]1[C@@H]2C`: the IC50 in the assay with MCF7, in the assay with HepG2, in the assay on HCT-116, in the assay with HeLa, with HT-1080 and with A549 was over 50 µM throughout.

As to `Cc1ccc(/C=C/C(=O)N[C@H]2[C@H](O[C@H]3CC[C@@]4(C)C(=CC[C@H]5[C@@H]6C[C@@H]7O[C@]8(CC[C@@H](C)CO8)[C@@H](C)[C@@H]7[C@@]6(C)CC[C@@H]54)C3)O[C@H](CO)[C@@H](O)[C@@H]2O)cc1`, the IC50 came to 5.3 µM in the assay on MCF7; 35.5 µM in the assay on HepG2; 40.4 µM with HCT-116; 6.5 µM with HeLa; 23.5 µM with HT-1080; 41.6 µM in the assay with A549.

Regarding `COc1cccc(/C=C/C(=O)N[C@H]2[C@H](O[C@H]3CC[C@@]4(C)C(=CC[C@H]5[C@@H]6C[C@@H]7O[C@]8(CC[C@@H](C)CO8)[C@@H](C)[C@@H]7[C@@]6(C)CC[C@@H]54)C3)O[C@H](CO)[C@@H](O)[C@@H]2O)c1OC`, the IC50 came to 44.4 µM with MCF7; 45.6 µM in the assay with HepG2; 47.4 µM in the assay with HCT-116; 36.2 µM with HeLa; 21.2 µM with HT-1080; 43.4 µM in the assay with A549.

With `COc1cccc(/C=C/C(=O)N[C@H]2[C@H](O[C@H]3CC[C@@]4(C)C(=CC[C@H]5[C@@H]6C[C@@H]7O[C@]8(CC[C@@H](C)CO8)[C@@H](C)[C@@H]7[C@@]6(C)CC[C@@H]54)C3)O[C@H](CO)[C@@H](O)[C@@H]2O)c1`, the IC50 in the assay with MCF7 is 24.1 µM; in the assay with HepG2, over 50 µM; in the assay with HCT-116, over 50 µM; in the assay on HeLa, 27 µM; in the assay on HT-1080, 26.6 µM; with A549, 26.9 µM.

Take `C[C@@H]1CC[C@@]2(OC1)O[C@H]1C[C@H]3[C@@H]4CC=C5C[C@@H](O[C@@H]6O[C@H](CO)[C@@H](O)[C@H](O)[C@H]6NC(=O)/C=C/c6ccccc6)CC[C@]5(C)[C@H]4CC[C@]3(C)[C@H]1[C@@H]2C`: the IC50 was 16 µM in the assay with MCF7; 36.3 µM in the assay with HepG2; 39.1 µM with HCT-116; 12.8 µM in the assay with HeLa; 29.8 µM in the assay on HT-1080; 41.8 µM in the assay on A549.
